Results as given in US9023789B2, “Amylin analogs and pharmaceutical compositions thereof” (Novo Nordisk A/S, priority 2012, dated 2015).
In brackets after ≈: the same amount, converted by molar mass. Like-named read-outs stand apart in the source and are kept apart here. Numbered stars: 1 amine (or outer) side, 2 acyl side, 3 side chain; on linkers, the order of the positions; unused ones are H or OH. Bridge positions count the residues as written; N and C are the ends. Side chains are listed from the residue outwards. Peptide text beside a SMILES is read from it. * marks the point of attachment. C20 diacid = O=C(O)CCCCCCCCCCCCCCCCCCC(=O)*; γGlu = O=C(O)[C@H](CCC(=O)[*:2])N[*:1]; AEEA = NCCOCCOCC(=O)O

Columns and labels:
[1] = biological target: T1, human amylin receptor (membranes from Amylin 3(a)/CRE-luc cells) (Homo sapiens, UniProt O60896+P30988); assay: ASSAY (V) binding to the human amylin receptor (SPA, 125I-rat amylin);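 also: competition binding of cell membranes (35 ng/µL) mixed with SPA beads in 384-well plates at 40 µL total volume, read by scintillation counting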
T1 construct: expressed in transfected cells
T1 sequence (P30988 25-474): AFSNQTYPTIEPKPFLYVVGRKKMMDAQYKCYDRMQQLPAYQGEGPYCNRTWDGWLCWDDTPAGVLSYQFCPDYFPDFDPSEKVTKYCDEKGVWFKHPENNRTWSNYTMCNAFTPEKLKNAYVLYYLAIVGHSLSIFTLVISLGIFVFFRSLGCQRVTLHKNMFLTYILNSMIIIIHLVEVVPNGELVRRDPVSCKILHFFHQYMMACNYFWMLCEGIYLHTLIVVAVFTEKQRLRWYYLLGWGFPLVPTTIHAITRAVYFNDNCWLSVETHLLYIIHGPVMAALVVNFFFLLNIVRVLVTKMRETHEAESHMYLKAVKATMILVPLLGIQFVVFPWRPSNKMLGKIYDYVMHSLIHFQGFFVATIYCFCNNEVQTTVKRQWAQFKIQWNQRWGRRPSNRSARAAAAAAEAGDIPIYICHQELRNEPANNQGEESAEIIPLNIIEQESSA
T1 sequence (O60896 24-148 partner): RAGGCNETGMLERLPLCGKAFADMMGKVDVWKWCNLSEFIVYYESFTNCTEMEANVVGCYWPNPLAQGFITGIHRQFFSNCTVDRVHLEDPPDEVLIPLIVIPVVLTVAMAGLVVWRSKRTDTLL

[2] = biological target: T2, rat calcitonin receptor (Rattus norvegicus, UniProt P32214); assay: ASSAY (VIII) binding to the rat calcitonin receptor; conditions: Table 7, read-out: rCTR bind IC50
T2 construct: expressed in transfected cells; host or cells: BHK tk'ts 13 (transient, FuGENE 6), membranes
T2 sequence (P32214 25-479 isoform P32214-2 limits assumed): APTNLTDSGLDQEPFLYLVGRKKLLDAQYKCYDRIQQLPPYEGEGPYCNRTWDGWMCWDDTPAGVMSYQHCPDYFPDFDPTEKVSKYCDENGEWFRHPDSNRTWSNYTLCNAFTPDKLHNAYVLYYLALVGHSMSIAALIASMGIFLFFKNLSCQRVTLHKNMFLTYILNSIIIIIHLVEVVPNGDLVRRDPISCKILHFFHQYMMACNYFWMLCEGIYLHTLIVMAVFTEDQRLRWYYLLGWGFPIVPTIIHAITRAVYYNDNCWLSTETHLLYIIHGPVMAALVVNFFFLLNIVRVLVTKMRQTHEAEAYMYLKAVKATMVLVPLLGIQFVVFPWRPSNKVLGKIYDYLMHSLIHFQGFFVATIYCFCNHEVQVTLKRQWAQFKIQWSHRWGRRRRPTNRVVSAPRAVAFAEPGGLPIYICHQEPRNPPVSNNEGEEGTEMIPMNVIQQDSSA
Procedure, shortened: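 Membranes were prepared from BHK tk′ts 13 cells transiently transfected with rat calcitonin receptor. Cells were grown in DMEM with 10% FBS and harvested approximately 48 hours after transfection.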

[3] = biological target: T3, rat amylin receptor (rat calcitonin receptor + rat RAMP 3) (Rattus norvegicus, UniProt P32214+Q9JJ73); assay: ASSAY (VI) binding to the rat amylin receptor; conditions: for IC50: binding to rat amylin receptor, read-out: rAmylin-R bind IC50
T3 construct: expressed in transfected cells; host or cells: BHK tk'ts 13 (transient, FuGENE 6), membranes
T3 sequence (P32214 25-479 isoform P32214-2 limits assumed): T2 sequence (P32214 25-479 isoform P32214-2 limits assumed)
T3 sequence (Q9JJ73 23-147 partner): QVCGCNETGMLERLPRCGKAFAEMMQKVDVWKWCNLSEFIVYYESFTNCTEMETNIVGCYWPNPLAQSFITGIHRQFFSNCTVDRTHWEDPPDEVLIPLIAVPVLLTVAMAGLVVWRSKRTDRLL
Procedure, shortened: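 This assay measured binding to the rat amylin receptor. BHK tk′ts 13 cells were transiently transfected with the rat calcitonin receptor using FuGENE® 6 (Roche), following the manufacturer's recommendations. About 48 hours after transfection, the cells were harvested and membranes were prepared from them for the binding determination.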

[4] = ASSAY (IV) determination of solubility; format: physicochemical
Procedure, shortened: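 Polypeptide in water at […] mixed 1:1 with 100 mM buffers of pH 3.0-8.0 (glycylglycine pH 3-5, bistrispropane pH 6-8). Held 18 h at room temperature, then centrifuged; concentration remaining in solution measured by UPLC.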

[5] = Table 5, selectivity, hCTR bind IC50 / hAmylin-R bind IC50
[6] = Table 5a, selectivity, hCTR bind IC50 / hAmylin-R bind IC50
[7] = Table 5b, selectivity, hCTR bind IC50 / hAmylin-R bind IC50
[8] = Table 5c, selectivity, hCTR bind IC50 / hAmylin-R bind IC50
[9] = Table 7, human binding selectivity, included for comparison
[10] = Table 7a (preferred compounds), human binding selectivity, included for comparison
[11] = ratio of human calcitonin receptor binding IC50 to human amylin receptor binding IC50
[12] = Table 7, rat binding selectivity, rCTR IC50 / rAmylin-R IC50
[13] = Table 7a (preferred compounds), rat binding selectivity, rCTR IC50 / rAmylin-R IC50
[14] = ratio of rCTR bind IC50 to rAmylin-R bind IC50
[15] = bistrispropane buffer, pH 6.5, read-out: Solubility pH 6.5 Concentration
[16] = bistrispropane buffer, pH 7.5, read-out: Solubility pH 7.5 Concentration
[17] = bistrispropane buffer, pH 6.0, read-out: Solubility pH 6.0 Concentration
[18] = bistrispropane buffer, pH 7.0, read-out: Solubility pH 7.0 Concentration
[19] = bistrispropane buffer, pH 8.0, read-out: Solubility pH 8.0 Concentration
[20] = glycylglycine buffer, pH 3.0, read-out: Solubility pH 3.0 Concentration
[21] = glycylglycine buffer, pH 4.0, read-out: Solubility pH 4.0 Concentration
[22] = glycylglycine buffer, pH 5.0, read-out: Solubility pH 5.0 Concentration

CC[C@H](C)[C@H](NC(=O)[C@H](C)NC(=O)CNC(=O)[C@H](Cc1ccccc1)NC(=O)[C@H](CC(N)=O)NC(=O)[C@@H]1CCCN1C(=O)[C@H](CO)NC(=O)[C@H](CO)NC(=O)[C@H](Cc1c[nH]cn1)NC(=O)[C@H](CCCNC(=N)N)NC(=O)[C@H](CC(C)C)NC(=O)[C@H](Cc1ccccc1)NC(=O)CNC(=O)[C@H](C)NC(=O)[C@H](CC(C)C)NC(=O)[C@H](CCCNC(=N)N)NC(=O)[C@H](CCC(N)=O)NC(=O)[C@@H](NC(=O)[C@H](C)NC(=O)[C@@H]1CSSC[C@H](NC(=O)[C@@H](N)CCCCNC(=O)COCCOCCNC(=O)CC[C@H](NC(=O)CCCCCCCCCCCCCCCCCCC(=O)O)C(=O)O)C(=O)N[C@@H](CC(N)=O)C(=O)N[C@@H]([C@@H](C)O)C(=O)N[C@@H](C)C(=O)N[C@@H]([C@@H](C)O)C(=O)N1)[C@@H](C)O)C(=O)N1CCC[C@H]1C(=O)N[C@@H](CO)C(=O)N[C@@H](CO)C(=O)N[C@H](C(=O)N1CCC[C@H]1C(=O)N[C@H](C(=O)NCC(=O)N[C@@H](CO)C(=O)N[C@@H](CC(N)=O)C(=O)N[C@H](C(=O)N[C@@H](Cc1ccc(O)cc1)C(N)=O)[C@@H](C)O)C(C)C)[C@@H](C)O [Example 71] (H-K([AEEA-γGlu-C20 diacid])CNTATCATQRLAGFLRHSSPNFGAIPSSTPVGSNTY-NH2; disulfide 2-7)
Ratio hCT/hAmylin binding [1, 5]: 32.0 | Ratio hCT/hAmylin binding [1, 6]: 32.0 | Ratio hCT/hAmylin binding [1, 7]: 32.0 | Ratio hCT/hAmylin binding [1, 8]: 32.0 | Ratio hCT/hAmylin binding [1, 9]: 32.0 | Ratio hCT/hAmylin binding [1, 10]: 32.0 | Ratio hCT/hAmylin binding [1, 11]: 32.0 | IC50 [2]: 44.8 nM | IC50 ([3]; Table 7): 0.276 nM | Ratio rCT/rAmylin binding [3, 12]: 162.4 | Ratio rCT/rAmylin binding [3, 13]: 162.4 | Ratio rCT/rAmylin binding [3, 14]: 162.4 | solubility at 18 h [4, 15]: ≥ 200 µM | solubility at 18 h [4, 16]: ≥ 200 µM | solubility at 18 h [4, 17]: ≥ 200 µM | solubility at 18 h [4, 18]: ≥ 200 µM | solubility at 18 h [4, 19]: ≥ 200 µM | solubility at 18 h [4, 20]: ≥ 200 µM | solubility at 18 h [4, 21]: ≥ 200 µM | solubility at 18 h [4, 22]: ≥ 200 µM

CC[C@H](C)[C@H](NC(=O)[C@H](C)NC(=O)CNC(=O)[C@H](Cc1ccccc1)NC(=O)[C@H](CC(N)=O)NC(=O)[C@@H]1CCCN1C(=O)[C@H](CO)NC(=O)[C@H](CO)NC(=O)[C@H](Cc1c[nH]cn1)NC(=O)[C@H](CCCNC(=N)N)NC(=O)[C@H](CC(C)C)NC(=O)[C@H](Cc1ccccc1)NC(=O)[C@H](C)NC(=O)[C@H](C)NC(=O)[C@H](CC(C)C)NC(=O)[C@H](CCCNC(=N)N)NC(=O)[C@H](CCC(N)=O)NC(=O)[C@@H](NC(=O)[C@H](C)NC(=O)[C@@H]1CSSC[C@H](NC(=O)[C@@H](N)CCCCNC(=O)COCCOCCNC(=O)CC[C@H](NC(=O)CCCCCCCCCCCCCCCCCCC(=O)O)C(=O)O)C(=O)N[C@@H](CC(N)=O)C(=O)N[C@@H]([C@@H](C)O)C(=O)N[C@@H](C)C(=O)N[C@@H]([C@@H](C)O)C(=O)N1)[C@@H](C)O)C(=O)N1CCC[C@H]1C(=O)N[C@@H](CO)C(=O)N[C@@H](CO)C(=O)N[C@H](C(=O)N1CCC[C@H]1C(=O)N[C@H](C(=O)NCC(=O)N[C@@H](CO)C(=O)N[C@@H](CC(N)=O)C(=O)N[C@H](C(=O)N[C@@H](Cc1ccc(O)cc1)C(N)=O)[C@@H](C)O)C(C)C)[C@@H](C)O [Example 72] (H-K([AEEA-γGlu-C20 diacid])CNTATCATQRLAAFLRHSSPNFGAIPSSTPVGSNTY-NH2; disulfide 2-7 (inferred); N-terminus assumed)
IC50 ([1]; Table 4, read-out: hAmylin-R bind IC50): 0.172 nM | Ratio hCT/hAmylin binding [1, 5]: 246.6 | Ratio hCT/hAmylin binding [1, 6]: 246.6 | Ratio hCT/hAmylin binding [1, 7]: 246.6 | Ratio hCT/hAmylin binding [1, 8]: 246.6 | Ratio hCT/hAmylin binding [1, 9]: 246.6 | Ratio hCT/hAmylin binding [1, 10]: 246.6 | Ratio hCT/hAmylin binding [1, 11]: 246.6 | IC50 [2]: 221 nM | IC50 ([3]; Table 7): 0.851 nM | Ratio rCT/rAmylin binding [3, 12]: 259.3 | Ratio rCT/rAmylin binding [3, 13]: 259.3 | Ratio rCT/rAmylin binding [3, 14]: 259.3 | solubility at 18 h [4, 15]: ≥ 200 µM | solubility at 18 h [4, 16]: ≥ 200 µM | solubility at 18 h [4, 17]: ≥ 200 µM | solubility at 18 h [4, 18]: ≥ 200 µM | solubility at 18 h [4, 19]: 194 µM (≈ 866 µg/mL) | solubility at 18 h [4, 20]: ≥ 200 µM | solubility at 18 h [4, 21]: ≥ 200 µM | solubility at 18 h [4, 22]: ≥ 200 µM
